Data from article PMC11444284, “Chloroplastic ascorbate modifies plant metabolism and may act as a metabolite signal regardless of oxidative stress” (Plant Physiology, 2024).

How the values were obtained:
SBPase [1] = molecular target: T1, SBPase (Arabidopsis thaliana, UniProt P46283); assay: malachite green phosphate release assay; format: biochemical; details: read-out: % inhibition at 10 mM
T1 construct: gene At3g55800
T1 sequence (P46283 75-393): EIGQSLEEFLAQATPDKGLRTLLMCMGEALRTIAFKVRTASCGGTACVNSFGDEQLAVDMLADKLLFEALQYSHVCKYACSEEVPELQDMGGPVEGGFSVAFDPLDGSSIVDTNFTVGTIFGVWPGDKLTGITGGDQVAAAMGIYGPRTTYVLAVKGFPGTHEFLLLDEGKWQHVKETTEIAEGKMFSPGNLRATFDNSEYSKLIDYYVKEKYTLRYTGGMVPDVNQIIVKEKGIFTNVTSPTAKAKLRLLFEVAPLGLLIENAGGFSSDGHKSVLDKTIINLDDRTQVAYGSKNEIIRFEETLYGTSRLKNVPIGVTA

SBPase [2] = molecular target: T1, SBPase; assay: malachite green phosphate release assay; format: biochemical; details: 500 µM; alternative substrate; 15 mM MgCl2, 10 mM DTT; thioredoxin F1-activated; room temperature activation

Compound	inhibition at 10000 µM (SBPase [1])	malachite green phosphate release assay (SBPase [2])
O=C1O[C@H]([C@@H](O)CO)C(O)=C1O [Ascorbate]	~57%	–
O=P(O)(O)OC[C@H]1OC(O)(COP(=O)(O)O)[C@@H](O)[C@@H]1O (some centres unmarked) [fructose-1-6-bisphosphate]	–	conversion rate of the alternative SBPase substrate fructose-1-6-bisphosphate to fructose-6-phosphate
